Assay results reported in ChEMBL document CHEMBL1201862, “PubChem BioAssay data set” (2004).
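Briefly, cells in 96-well plates were exposed to five compound concentrations for 48 h, and endpoints were estimated by linear interpolation. GI50 is the concentration that inhibits growth by half.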 Activity calls are given as the source filed them. Rule as the data show it: active = GI50 up to about 1.1 µM and inactive = higher.

What was measured:
Experiment in all cases: DTP human tumour cell line panel, 48 h
CAKI-1 = tested on: CAKI-1
COLO 205 = tested on: COLO 205
DU-145 = tested on: DU-145
HCT-15 = tested on: HCT-15
HOP-62 = tested on: HOP-62
HT-29 = tested on: HT-29
M14 = tested on: M14
MDA-N = tested on: MDA-N
NCI-H23 = tested on: NCI-H23
NCI/ADR-RES = tested on: NCI/ADR-RES
RPMI-8226 = tested on: RPMI-8226
SF-295 = tested on: SF-295
SNB-19 = tested on: SNB-19
TK-10 = tested on: TK-10
UACC-62 = tested on: UACC-62
UO-31 = tested on: UO-31
EKVX = tested on: EKVX
A498 = tested on: A498

[N-]=[N+]=Nc1c(Cl)c(=O)n(-c2ccccc2)c2ccccc12
GI50 (CAKI-1): 21.7 µM (inactive) | GI50 (COLO 205): 25.8 µM (inactive) | GI50 (DU-145): 29.2 µM (inactive) | GI50 (HCT-15): 20.7 µM | GI50 (HOP-62): 24 µM (inactive) | GI50 (HT-29): 23.2 µM (inactive) | GI50 (M14): 16.6 µM (inactive) | GI50 (MDA-N): 24.5 µM (inactive) | GI50 (NCI-H23): 19.6 µM (inactive) | GI50 (NCI/ADR-RES): 24.2 µM (inactive) | GI50 (RPMI-8226): 34 µM (inactive) | GI50 (SF-295): 30.7 µM (inactive) | GI50 (SNB-19): 28.9 µM (inactive) | GI50 (TK-10): > 10 µM (inactive) | GI50 (UACC-62): 15.1 µM (inactive) | GI50 (UO-31): 23.9 µM (inactive)

Cc1cc(=O)oc2c(C)c3oc(CBr)c(Br)c3cc12
GI50 (CAKI-1): 17.2 µM (inactive) | GI50 (COLO 205): 28.2 µM (inactive) | GI50 (DU-145): 42.9 µM (inactive) | GI50 (EKVX): 92.3 µM (inactive) | GI50 (HCT-15): 30.1 µM | GI50 (HOP-62): 27 µM (inactive) | GI50 (HT-29): 39.2 µM (inactive) | GI50 (M14): 22 µM (inactive) | GI50 (MDA-N): 30.4 µM (inactive) | GI50 (NCI-H23): 39 µM (inactive) | GI50 (NCI/ADR-RES): 33.7 µM (inactive) | GI50 (RPMI-8226): 16.3 µM (inactive) | GI50 (SF-295): 17.2 µM (inactive) | GI50 (SNB-19): 31.6 µM (inactive) | GI50 (TK-10): 56.4 µM (inactive) | GI50 (UACC-62): 17.5 µM (inactive) | GI50 (UO-31): 18.6 µM (inactive)

Oc1cc(CF)nc(S)n1
GI50 (A498): > 100 µM (inactive) | GI50 (CAKI-1): > 100 µM (inactive) | GI50 (DU-145): > 100 µM (inactive) | GI50 (EKVX): > 100 µM (inactive) | GI50 (HCT-15): > 100 µM | GI50 (HOP-62): > 100 µM (inactive) | GI50 (HT-29): > 100 µM (inactive) | GI50 (M14): > 100 µM (inactive) | GI50 (MDA-N): > 100 µM (inactive) | GI50 (NCI-H23): > 100 µM (inactive) | GI50 (NCI/ADR-RES): > 100 µM (inactive) | GI50 (SF-295): > 100 µM (inactive) | GI50 (SNB-19): > 100 µM (inactive) | GI50 (TK-10): > 100 µM (inactive) | GI50 (UACC-62): > 100 µM (inactive) | GI50 (UO-31): > 100 µM (inactive)

CCCC[N+](CCCC)(CCCC)CCCC.O=S(=O)([O-])ON=C1c2ccccc2-c2ccccc21
GI50 (A498): > 100 µM (inactive) | GI50 (CAKI-1): > 100 µM (inactive) | GI50 (COLO 205): > 100 µM (inactive) | GI50 (DU-145): > 100 µM (inactive) | GI50 (EKVX): > 100 µM (inactive) | GI50 (HCT-15): 10 µM | GI50 (HOP-62): > 100 µM (inactive) | GI50 (HT-29): > 100 µM (inactive) | GI50 (M14): > 100 µM (inactive) | GI50 (NCI-H23): > 100 µM (inactive) | GI50 (NCI/ADR-RES): > 100 µM (inactive) | GI50 (RPMI-8226): 50.8 µM (inactive) | GI50 (SF-295): > 100 µM (inactive) | GI50 (SNB-19): > 100 µM (inactive) | GI50 (TK-10): > 100 µM (inactive) | GI50 (UACC-62): > 100 µM (inactive) | GI50 (UO-31): > 100 µM (inactive)

COC1=C(Br)[C@H](O)[C@@]2(C=C1Br)CC(C(=O)NCCCCCNC(=N)N)=NO2 [APLYSINAMISINE II]
GI50 (A498): > 10 µM (inactive) | GI50 (COLO 205): > 10 µM (inactive) | GI50 (DU-145): > 10 µM (inactive) | GI50 (HCT-15): > 10 µM | GI50 (HOP-62): > 10 µM (inactive) | GI50 (HT-29): > 10 µM (inactive) | GI50 (M14): > 10 µM (inactive) | GI50 (MDA-N): > 10 µM (inactive) | GI50 (NCI-H23): > 10 µM (inactive) | GI50 (NCI/ADR-RES): > 10 µM (inactive) | GI50 (RPMI-8226): > 10 µM (inactive) | GI50 (SF-295): > 10 µM (inactive) | GI50 (SNB-19): > 10 µM (inactive) | GI50 (TK-10): > 10 µM (inactive) | GI50 (UACC-62): > 10 µM (inactive) | GI50 (UO-31): > 10 µM (inactive)

COc1ccc(/C=C2\CCC(CNc3ccc(S(N)(=O)=O)cc3)C2=O)cc1 (stereo unspecified)
GI50 (A498): 44.4 µM (inactive) | GI50 (CAKI-1): 3.27 µM (inactive) | GI50 (COLO 205): 16.6 µM (inactive) | GI50 (DU-145): > 53.8 µM (inactive) | GI50 (EKVX): 27.6 µM (inactive) | GI50 (HCT-15): 4.71 µM | GI50 (HOP-62): 37.8 µM (inactive) | GI50 (HT-29): 10.2 µM (inactive) | GI50 (M14): 15.5 µM (inactive) | GI50 (NCI-H23): 19.7 µM (inactive) | GI50 (NCI/ADR-RES): 31.6 µM (inactive) | GI50 (SF-295): > 67.3 µM (inactive) | GI50 (SNB-19): 32 µM (inactive) | GI50 (TK-10): 14.3 µM (inactive) | GI50 (UACC-62): 24.5 µM (inactive) | GI50 (UO-31): 5.71 µM (inactive)

CCOC(=O)N1CCN(c2c(N)nc(C)nc2O)CC1
GI50 (A498): > 100 µM (inactive) | GI50 (COLO 205): > 100 µM (inactive) | GI50 (DU-145): > 100 µM (inactive) | GI50 (EKVX): > 100 µM (inactive) | GI50 (HCT-15): > 100 µM | GI50 (HOP-62): > 100 µM (inactive) | GI50 (HT-29): > 100 µM (inactive) | GI50 (M14): > 100 µM (inactive) | GI50 (MDA-N): > 100 µM (inactive) | GI50 (NCI-H23): > 100 µM (inactive) | GI50 (NCI/ADR-RES): > 100 µM (inactive) | GI50 (RPMI-8226): > 100 µM (inactive) | GI50 (SF-295): > 100 µM (inactive) | GI50 (SNB-19): > 100 µM (inactive) | GI50 (TK-10): > 100 µM (inactive) | GI50 (UO-31): > 100 µM (inactive)

COc1ccc(-c2nc(N)c3ncn(C4OC(CO)C(O)C4O)c3n2)cc1 (stereo unspecified)
GI50 (A498): > 100 µM (inactive) | GI50 (CAKI-1): > 100 µM (inactive) | GI50 (COLO 205): > 100 µM (inactive) | GI50 (DU-145): > 100 µM (inactive) | GI50 (EKVX): > 100 µM (inactive) | GI50 (HCT-15): > 100 µM | GI50 (HOP-62): > 100 µM (inactive) | GI50 (HT-29): > 100 µM (inactive) | GI50 (M14): > 100 µM (inactive) | GI50 (MDA-N): > 100 µM (inactive) | GI50 (NCI-H23): > 100 µM (inactive) | GI50 (NCI/ADR-RES): > 100 µM (inactive) | GI50 (RPMI-8226): > 100 µM (inactive) | GI50 (SF-295): > 100 µM (inactive) | GI50 (SNB-19): > 100 µM (inactive) | GI50 (TK-10): > 100 µM (inactive) | GI50 (UACC-62): > 100 µM (inactive)
